In patent US8192962B2, “Processes for detecting toxic substances” (Daikin Industries, Ltd., priority 2001, dated 2012):

Test system: Energy system protein genes
Test: DNA chip mRNA expression in yeast, energy system protein genes (Table 4)
Type: cell-based, Saccharomyces cerevisiae S288C
Method in brief: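 Measured as treated-to-untreated fluorescence ratio on a full-genome yeast DNA chip. Cells (S288C, YPD, 25° C.) were exposed in log phase for two hours to one chemical, dosed to curb growth without killing.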

Measured: The level of expressed mRNA in the presence of chemical substance/The level of expressed mRNA in the absence of chemical substance

C=CC=O [(14), acrolein]
1.4: yeast gene YBR299W | yeast gene YDL067C, cells incubated two hours with the chemical substance | yeast gene YDR377W, cells incubated two hours with the chemical substance | yeast gene YEL039C, cells incubated two hours with the chemical substance
3.7: yeast gene YDL021W
1.7: yeast gene YBR185C, cells incubated two hours with the chemical substance
1.1: yeast gene YDL174C | yeast gene YDL181W, cells incubated two hours with the chemical substance | yeast gene YEL024W, cells incubated two hours with the chemical substance | yeast gene YJL216C, cells incubated two hours with the chemical substance
1.5: yeast gene YDL107W, cells incubated two hours with the chemical substance | yeast gene YDR079W, cells incubated two hours with the chemical substance | yeast gene YDR178W, cells incubated two hours with the chemical substance | yeast gene YDR231C | yeast gene YDR298C, cells incubated two hours with the chemical substance | yeast gene YDR529C, cells incubated two hours with the chemical substance | yeast gene YIL160C
0.8: yeast gene YBR221C, cells incubated two hours with the chemical substance | yeast gene YDL078C, cells incubated two hours with the chemical substance
1.3: yeast gene YBL058W, cells incubated two hours with the chemical substance | yeast gene YCR046C, cells incubated two hours with the chemical substance | yeast gene YJL052W
1.0: yeast gene YDR001C | yeast gene YGL205W, cells incubated two hours with the chemical substance | yeast gene YGR192C | yeast gene YJR009C
5.8: yeast gene YHR179W
0.9: yeast gene YAL060W | yeast gene YCR012W | yeast gene YER178W | yeast gene YGL187C, cells incubated two hours with the chemical substance | yeast gene YGL256W, cells incubated two hours with the chemical substance | yeast gene YJL121C, cells incubated two hours with the chemical substance
0.6: yeast gene YBL099W, cells incubated two hours with the chemical substance | yeast gene YFR053C | yeast gene YGR254W
23.4: yeast gene YFL057C
1.9: yeast gene YCR105W, cells incubated two hours with the chemical substance | yeast gene YJL166W, cells incubated two hours with the chemical substance
1.6: yeast gene YGL191W, cells incubated two hours with the chemical substance | yeast gene YGR174C, cells incubated two hours with the chemical substance
0.7: yeast gene YCL040W | yeast gene YGR087C, cells incubated two hours with the chemical substance
4.1: yeast gene YGR043C
1.2: yeast gene YBR001C, cells incubated two hours with the chemical substance | yeast gene YDR050C, cells incubated two hours with the chemical substance | yeast gene YGL018C, cells incubated two hours with the chemical substance | yeast gene YGL062W | yeast gene YGR062C, cells incubated two hours with the chemical substance, 25° C., YPD medium | yeast gene YGR244C | yeast gene YIR031C, cells incubated two hours with the chemical substance
